Laboratory results from patent US8073630B2, “Pharacogenetic method for prediction of the efficacy of methotrexate monotherapy in recent-onset arthritis” (Exagen Diagnostics, Inc., priority 2006, dated 2011).

Legend:
RA patients = assay: Replication cohort of RA patients on MTX monotherapy (BeSt and UMCN), response at 6 months; format: in vivo, human; conditions: replication group n=38 (n=17 responders); average MTX dosage 19 mg weekly (range 5-25 mg weekly)
Method: Thirty-eight patients were recruited to replicate the genetic model. The validation cohort data were collected after development of the predictive model, but the investigators were blinded to either the clinical parameters or the genotyping results for the replication group. Fourteen patients were available from the BeSt study; they were treated with initial MTX monotherapy, but DNA samples were obtained after the clinical pharmacogenetic model was developed. Twenty-four patients were available from the RA cohort of the rheumatology department at the University Medical Center Nijmegen (UMCN), consisting of 553 patients (5, 51). Patients were eligible for the replication cohort if they fulfilled the ACR 1987 criteria for RA, started with MTX monotherapy, had not been treated previously with DMARDs other than antimalarial agents, and had disease duration of less than 2 years. In addition, clinical data comprising the prediction model and DNA samples had to be available. In the UMCN cohort, 352 patients were recorded as having received MTX at any time point. […]
The response at 6 months after starting MTX treatment in the group of RA patients (n=38) in the replication model was 45% (n=17), with an average MTX dosage of 19 mg weekly (range 5-25 mg weekly). […] The calculated simple scores in the replication group of RA patients ranged from 1 to 9. […]

[1] = tested on: patients with recent onset RA; assay: MTX monotherapy efficacy in recent-onset RA patients (BeSt study subcohort), DAS response at 6 months; format: in vivo, human
From the text: The 205 patients enrolled in this study comprised a subcohort of the 508 patients who participated in the BeSt study. (5) The BeSt study is a randomized, multicenter, single-blinded, clinical study comparing the clinical efficacy of four different treatment strategies in recent onset RA including sequential monotherapy (n=126 starting with MTX), step up to combination therapy of MTX with sulfasalazine (SSZ, n=121 starting with MTX), initial combination therapy with MTX, SSZ and a high tapered dose of prednisolone (n=133), or initial biologic therapy with infliximab plus MTX (n=128). Inclusion criteria for patients in the study comprise the American College of Rheumatology (ACR) 1987 criteria for RA (23), an age ≧18 years, and a disease duration of <2 years. Patients were also required to have active RA, defined as ≧6 swollen joints (out of 66) and ≧6 tender joints (out of 68) and either an erythrocyte sedimentation rate (ESR) ≧28 mm/hour or a score of ≧20 mm on 100 mm visual analogue scale (VAS) for patient's assessment of global health (0=best, 100=worst). […]
Patients allocated initial monotherapy with MTX with available DNA samples (n=205) were included in the current analysis. […] A research nurse who was blinded to the allocated treatment group assessed the DAS every 3 months. […]

patients who discontinued MTX permanently after experiencing ADEs ([1]; of the 205 patients, within first 6 months): 10 patients
Structure (SMILES): CN(Cc1cnc2nc(N)nc(N)c2n1)c1ccc(C(=O)N[C@@H](CCC(=O)O)C(=O)O)cc1 [MTX, Methotrexate]
response at 6 months after starting MTX treatment (RA patients): 45% | responders (DAS of ≦2.4, good clinical response) ([1]; at 6 months of treatment with MTX, oral MTX 7.5 mg weekly increasing to 15 mg, stepwise to 25 mg weekly, with folic acid 1 mg daily, 186 patients evaluable (n=87 responders)): 47 % of patients
